Measurements from US20110105496A1, “Methods For The Treatment Of Myosin Heavy Chain-Mediated Conditions Using 4,7-Dihydrothieno[2,3-B]Pyridine Compounds” (priority 2005, published 2011).

System: alpha-MyHC
Experiment: alpha-MyHC cytoblot process in neonatal rat ventricular myocytes (NRVM)
Type: cell-based
Settings: Table 1, NRVM, 72 hours; for EC50: alpha-MyHC cytoblot, mean ± spread; for Max Plateau: maximum of dose response fit, low control = vehicle only
Procedure: In vitro activity of each compound is measured using the alpha-MyHC cytoblot process. Briefly, neonatal rat ventricular myocytes (NRVM) at 120,000 cells/ml in HyQ DME/High modified culture media supplemented with 10% charcoal/dextran treated FBS, 0.1% Nutridoma-SP, 1:100 MEM non-essential amino acids, 1:50 MEM amino acids solution w/o L-Gln, 1 mM sodium pyruvate and 1:100 P/S/G, are plated on gelatin coated sterile 384-well plates (Costar 3712) at 6,000 cells per well. Cells are incubated overnight at 37° C. in 5% CO2 100% humidity. Following overnight growth the media is changed to HyQ DME/High modified culture media supplemented with 0.3% Nutridoma-SP, 1:100 MEM non-essential amino acids, 1:50 MEM amino acids solution w/o L-Gln, 1 mM sodium pyruvate and 1:100 P/S/G. Cells are then dosed with serial dilutions of each compound in DMSO. Each concentration in the dose range is dosed in quadruplicate. Dosing is done in such a way so that the final DMSO concentration was 0.44%. Compound dilutions are 3-fold with the final top concentration of 10 uM. […] Following dosing, the cells are incubated for 72 hours at 37° C. in 5% CO2 100% humidity and then processed with the cytoblot method. Briefly, cell media is aspirated and cell monolayers washed with PBS and fixed with 100% methanol for 30 minutes. Fixed cells are then blocked with PBS, 0.05% Tween-20, 1% BSA, for 1 hour. Following blocking, cells are incubated with primary alpha-MyHC-specific antibody antibody (1:30 dilution of BA-G5 hybridoma conditioned media, ATCC HB276) for 1 hour. Following incubation with the primary antibody, cells are washed with PBS, 0.05% Tween-20, 1% BSA and incubated with secondary antibody (1:1000 dilution, goat-anti-mouse HRP, Southern Biotech, 1031-05) for 1 hour. Following incubation with the secondary antibody, wells are washed and incubated in SuperSignal, West Dura HRP-luminescence substrate for 30 seconds under shaking at room temperature. Luminescence is measured using a Packard Fusion plate reader. […] RLU values are converted into per cent fraction of low control and dose responses are fitted to a sigmoidal 4-parameter equation (XLFit, IDBS) where the EC50 and Max Plateau values were extracted. […] Max Plateau is the […] maximum value determined by the dose response fit.

EC50	Structure (SMILES)	Max Plateau
0.943 µM	CC(=O)C1=C(C)Nc2sc(C(=O)c3ccccc3)c(N)c2C1C1CCCCC1 (centres unmarked) [Compound 26]	185.33 ± 55.04 per cent fraction of low control
0.0864 µM	CC(=O)C1=C(C)Nc2sc(C(=O)c3ccc(Cl)c(Cl)c3)c(N)c2C1c1ccccc1F (centres unmarked) [Compound 27]	220.13 ± 23.10 per cent fraction of low control
1.25 µM	CC(=O)C1=C(C)Nc2sc(C(=O)c3ccc(Cl)c(Cl)c3)c(N)c2C1c1ccccc1O (centres unmarked) [Compound 34]	184.69 ± 15.76 per cent fraction of low control
0.00618 µM	CCC(=O)C1=C(CC)Nc2sc(C(=O)c3ccc(Cl)c(Cl)c3)c(N)c2C1c1ccccc1 (centres unmarked) [Compound 36]	256.56 ± 24.93 per cent fraction of low control
0.0144 µM	CCC(=O)C1=C(CC)Nc2sc(C(=O)c3ccc(Cl)c(Cl)c3)c(N)c2C1c1c(F)cccc1Cl (centres unmarked) [Compound 40]	244.87 ± 7.92 per cent fraction of low control
0.116 µM	CC(=O)C1=C(C)Nc2sc(C(=O)c3ccc(Cl)c(Cl)c3)c(N)c2C1c1ccc(Cl)c(Cl)c1 (centres unmarked) [Compound 47]	173.47 ± 25.64 per cent fraction of low control
5.11 µM	CC(=O)C1=C(C)Nc2sc(C(=O)c3ccc(Cl)c(Cl)c3)c(N)c2C1c1ccc(C(F)(F)F)cc1 (centres unmarked) [Compound 48]	190.81 ± 37.09 per cent fraction of low control
0.0144 µM	CCC(=O)C1=C(CC)Nc2sc(C(=O)c3cccc(F)c3)c(N)c2C1c1ccccc1 (centres unmarked) [Compound 49]	299.18 ± 42.31 per cent fraction of low control
0.0581 µM	CCC(=O)C1=C(CC)Nc2sc(C(=O)c3ccc(Cl)c(Cl)c3)c(N)c2C1c1ccccc1Cl (centres unmarked) [Compound 53]	259.43 ± 26.30 per cent fraction of low control
0.0452 µM	CC(=O)C1=C(C)Nc2sc(C(=O)c3ccc(Cl)c(Cl)c3)c(N)c2C1c1cc(F)cc(F)c1 (centres unmarked) [Compound 55]	229.93 ± 37.33 per cent fraction of low control
1.25 µM	CC(=O)C1=C(C)Nc2sc(C(=O)c3ccccc3Cl)c(N)c2C1c1ccccc1 (centres unmarked) [Compound 57]	246.00 ± 16.33 per cent fraction of low control
0.425 µM	CCC(=O)C1=C(CC)Nc2sc(C(=O)c3ccc(Cl)c(Cl)c3)c(N)c2C1c1ccccc1[N+](=O)[O-] (centres unmarked) [Compound 59]	152.77 ± 11.42 per cent fraction of low control
0.0102 µM	CCC(=O)C1=C(CC)Nc2sc(C(=O)c3cc(Cl)ccc3Cl)c(N)c2C1c1ccccc1 (centres unmarked) [Compound 64]	281.39 ± 54.54 per cent fraction of low control
0.0121 µM	CCC(=O)C1=C(CC)Nc2sc(C(=O)c3ccccc3F)c(N)c2C1c1ccccc1 (centres unmarked) [Compound 67]	256.12 ± 53.66 per cent fraction of low control
0.233 µM	CCC(=O)C1=C(CC)Nc2sc(C(=O)c3ccccc3)c(N)c2C1c1cccnc1 (centres unmarked) [Compound 68]	175.88 ± 14.54 per cent fraction of low control
0.00923 µM	CCC(=O)C1=C(CC)Nc2sc(C(=O)c3ccc(F)c(F)c3)c(N)c2C1c1ccccc1 (centres unmarked) [Compound 72]	223.99 ± 24.51 per cent fraction of low control
0.00892 µM	CCC(=O)C1=C(CC)Nc2sc(C(=O)c3cc(C(F)(F)F)cc(C(F)(F)F)c3)c(N)c2C1c1ccccc1 (centres unmarked) [Compound 73]	205.27 ± 38.78 per cent fraction of low control

More lines, now with the values behind:

Structure (SMILES)	EC50	Max Plateau
CC(=O)C1=C(C)Nc2sc(C(=O)c3ccc(Cl)c(Cl)c3)c(N)c2C1c1ccc(O)cc1Cl (centres unmarked) [Compound 29]	0.0155 µM	281.88 ± 32.78 per cent fraction of low control
Nc1c(C(=O)c2ccccc2)sc2c1C(c1ccccc1)C(C(=O)c1ccccc1)=C(c1ccccc1)N2 (centres unmarked) [Compound 30]	–	100.00 ± 0.00 per cent fraction of low control
CC(=O)C1=C(C)Nc2sc(C(=O)c3ccc(Cl)c(Cl)c3)c(N)c2C1c1cccc2c1OCO2 (centres unmarked) [Compound 31]	–	121.08 ± 18.32 per cent fraction of low control
CC(=O)C1=C(C)Nc2sc(C(=O)c3ccc(Cl)c(Cl)c3)c(N)c2C1c1ccc(C(C)(C)C)cc1 (centres unmarked) [Compound 32]	–	100.00 ± 0.00 per cent fraction of low control
CC(=O)C1=C(C)Nc2sc(C(=O)c3ccc(Cl)c(Cl)c3)c(N)c2C1c1cc(Cl)cc(Cl)c1 (centres unmarked) [Compound 33]	1.95 µM	143.15 ± 21.22 per cent fraction of low control
CC(=O)C1=C(C)Nc2sc(C(=O)c3ccccc3)c(N)c2C1c1ccc(F)cc1 (centres unmarked) [Compound 37]	0.281 µM	227.92 ± 12.46 per cent fraction of low control
CCC(=O)C1=C(CC)Nc2sc(C(=O)c3ccc(Cl)c(Cl)c3)c(N)c2C1c1ccccc1Cl (centres unmarked) [Compound 38]	0.0161 µM	288.93 ± 52.81 per cent fraction of low control
CC(=O)C1=C(C)Nc2sc(C(=O)c3ccc(Cl)c(Cl)c3)c(N)c2C1c1cccs1 (centres unmarked) [Compound 41]	0.369 µM	178.47 ± 7.82 per cent fraction of low control
CC(=O)C1=C(C)Nc2sc(C(=O)c3ccc(Cl)c(Cl)c3)c(N)c2C1c1ccc[nH]1 (centres unmarked) [Compound 42]	4.59 µM	160.56 ± 20.02 per cent fraction of low control
CC(=O)C1=C(C)Nc2sc(C(=O)c3ccccc3)c(N)c2C1c1ccc(C(F)(F)F)cc1 (centres unmarked) [Compound 44]	1.72 µM	186.67 ± 11.55 per cent fraction of low control
CC(=O)C1=C(C)Nc2sc(C(=O)c3ccc(Cl)c(Cl)c3)c(N)c2C1c1ccc(C)cc1 (centres unmarked) [Compound 45]	–	108.63 ± 9.14 per cent fraction of low control
CC(C)C(=O)C1=C(C(C)C)Nc2sc(C(=O)c3ccc(Cl)c(Cl)c3)c(N)c2C1c1ccccc1 (centres unmarked) [Compound 46]	–	98.33 ± 4.08 per cent fraction of low control
CC(=O)C1=C(C)Nc2sc(C(=O)c3ccc(Cl)c(Cl)c3)c(N)c2C1c1ccc(F)cc1 (centres unmarked) [Compound 50]	0.161 µM	190.79 ± 27.94 per cent fraction of low control
CC(=O)C1=C(C)Nc2sc(C(=O)c3ccc(Cl)c(Cl)c3)c(N)c2C1c1ccc(Cl)cc1Cl (centres unmarked) [Compound 52]	–	122.73 ± 20.55 per cent fraction of low control
CCC(=O)C1=C(CC)Nc2sc(C(=O)c3ccc(Cl)c(Cl)c3)c(N)c2C1c1cccc(Cl)c1 (centres unmarked) [Compound 54]	0.00059 µM	267.44 ± 32.29 per cent fraction of low control
CCC(=O)C1=C(CC)Nc2sc(C(=O)c3ccc(Cl)c(Cl)c3)c(N)c2C1c1ccccc1C (centres unmarked) [Compound 56]	0.0429 µM	293.74 ± 50.82 per cent fraction of low control
CCC(=O)C1=C(CC)Nc2sc(C(=O)c3ccc(Cl)c(Cl)c3)c(N)c2C1c1cccc([N+](=O)[O-])c1 (centres unmarked) [Compound 58]	0.129 µM	232.20 ± 56.57 per cent fraction of low control
CCC(=O)C1=C(CC)Nc2sc(C(=O)c3ccc(Cl)c(Cl)c3)c(N)c2C1c1ccccc1C(F)(F)F (centres unmarked) [Compound 60]	–	100.00 ± 0.00 per cent fraction of low control
CC(=O)C1=C(C)Nc2sc(C(=O)c3cccc(F)c3)c(N)c2C1c1ccccc1 (centres unmarked) [Compound 61]	0.0971 µM	230.65 ± 55.61 per cent fraction of low control
COC(=O)c1cccc(C(=O)c2sc3c(c2N)C(c2ccccc2)C(C(C)=O)=C(C)N3)c1 (centres unmarked) [Compound 62]	0.361 µM	279.31 ± 67.94 per cent fraction of low control
CCC(=O)C1=C(CC)Nc2sc(C(=O)c3ccc(Cl)c(Cl)c3)c(N)c2C1c1c(F)cccc1F (centres unmarked) [Compound 63]	0.0208 µM	230.07 ± 45.59 per cent fraction of low control
CC(=O)C1=C(C)Nc2sc(C(=O)c3cccc(C(=O)O)c3)c(N)c2C1c1ccccc1 (centres unmarked) [Compound 65]	–	100.00 ± 0.00 per cent fraction of low control
CCC(=O)C1=C(CC)Nc2sc(C(=O)c3cccc(Cl)c3)c(N)c2C1c1ccccc1 (centres unmarked) [Compound 66]	0.00494 µM	306.19 ± 54.21 per cent fraction of low control
CCC(=O)C1=C(CC)Nc2sc(C(=O)c3ccccc3)c(N)c2C1c1c(F)cccc1F (centres unmarked) [Compound 69]	0.0317 µM	221.36 ± 15.94 per cent fraction of low control
CCC(=O)C1=C(CC)Nc2sc(C(=O)c3ccc(Cl)cc3Cl)c(N)c2C1c1ccccc1 (centres unmarked) [Compound 70]	0.0517 µM	191.97 ± 13.09 per cent fraction of low control
CCC(=O)C1=C(CC)Nc2sc(C(=O)c3ccc4c(c3)OCO4)c(N)c2C1c1ccccc1F (centres unmarked) [Compound 71]	0.0575 µM	223.30 ± 32.84 per cent fraction of low control
CCC(=O)C1=C(CC)Nc2sc(C(=O)c3cccc(C(=O)OC)c3)c(N)c2C1c1ccccc1 (centres unmarked) [Compound 74]	0.00984 µM	262.81 ± 32.38 per cent fraction of low control
